From patent US11020366B2, “Locomotor activity and increase in longevity of late infantile neuronal ceriod lipofuscinosis subjects by Gemfibrozil” (Rush University Medical Center, priority 2016, dated 2021)

Columns and labels:
Cln2^(−/−) mice [1] = assay: Survival study of Cln2(−/−) mice treated orally with gem; format: in vivo, mouse; details: gem 7.5 mg/kg body weight/day via gavage from 4 weeks of age
Description: Animal maintaining and experiments were in accordance with National Institute of Health guidelines and were approved by the Institutional Animal Care and Use committee (IACUC) of the Rush University of Medical Center, Chicago, Ill. […] However, if any mouse came to the moribund stage, it was decapitated after anesthesia with ketamine/xylazine injectables. Conditions for moribund were as follows: central nervous system disturbance (head tilt, seizures, tremors, circling, spasticity, and paresis); inability to remain upright; evidence of muscle atrophy; chronic diarrhea or constipation; rough coat and distended abdomen; preading area of alopecia caused by disease; coughing, rales, wheezing and nasal discharge; distinct jaundice and/or paleness (anemia); markedly discolored urine, polyuria or anuria; frank bleeding from any orifice; persistent self-induced trauma. Cln2^(+/−) animals were kindly provided by Dr. Peter Lobel (Center for Advanced Biotechnology and Medicine, Robert Wood Johnson Medical School, Piscataway, N.J., USA). These animals were inbred and subsequent generations were screened by RTPCR to further obtain Cln2^(+/+), Cln2^(+/−) and Cln2^(−/−) strains. […]
All values are expressed as means±SEM. […]

IL-1Ra [2] = assay: Western blot of motor cortex and striatum extracts for IL-1Ra; format: in vivo, mouse; details: Cln2(−/−) mice, 8 weeks of oral gem; both motor cortex and striatum
Description: (§1) Age- and sex-matched Cln2^(+/+) mice from the same background were used as wild type (WT) controls and Cln2^(−/−) animals were used in different treatment groups. Gem (7.5 mg/kg body wt/day) was dissolved in DMSO followed by dilution in 0.1% methyl cellulose (MeC). Cln2^(−/−) mice were either not fed (Un-untreated group), gavaged with 0.1% MeC (vehicle treated group) or gavaged with gem (gem-treated group) for 8 weeks for biochemical studies. Similar treatment regimen was followed as long as the animals are not considered to be morbid as described above for survival study. Here, 40 mice (20 male and 20 female) were used per group and animals (4 weeks old) were randomly selected for any group.
(§2) After 8 weeks of treatment, mice were sacrificed and cortex and striatum regions were isolated, homogenized in RIPA buffer (150 mM sodium chloride, 1.0% NP-40 or Triton X-100, 0.5% sodium deoxycholate, 0.1% SDS (sodium dodecyl sulphate), 50 mM Tris, pH 8.0), supernatant was taken and protein was estimated by BioRad protein assay. Equal amounts of protein from the tissue extract were separated in 12% or 15% Bis-Tris gels and proteins were transferred onto a nitrocellulose membrane (Bio-Rad) using the Thermo-Pierce Fast Semi-Dry Blotter (Corbett et al. 2015, Roy et al. 2015, Roy et al. 2016). […]

astroglia or microglia = assay: Astroglia and microglia in brain sections (GFAP, Iba1 immunofluorescence); format: in vivo, mouse; details: Cln2(−/−) mice, after gem treatment; motor cortex and striatum
Description: as §1
(§3) After 8 weeks of treatment, mice were sacrificed and their brains fixed, embedded, and processed. Sections (30 μm) were made from different brain regions (motor cortex and striatum) using a Leica Cryostat and immunofluorescence staining on fresh frozen sections was performed as described (Corbett et al. 2015, Roy et al. 2015, Roy et al. 2016). […] The samples were mounted and observed under Olympus IX41 fluorescence microscope. […] After acquiring images under 20×objective lens, images were further analyzed as follows. […] Once the area of the image was measured, touch counting program was applied to count number of fluorescent signals using simple mouse click method. […]

NeuN-positive neurons = assay: Neuronal apoptosis, NeuN/TUNEL double-labeling of brain sections; format: in vivo, mouse; details: Cln2(−/−) mice, oral gem 7.5 mg/kg/day, 8 weeks
Description: Reagents for TUNEL assay on frozen brain sections were purchased from EMD Millipore (Billerica, Mass.) and experiments were performed according to manufacturer's protocol. Blocking buffer and secondary antibodies for immune blot (IB) (IRDye 700 or IRDye 800—labelled) were purchased from Licor (Lincoln, Nebr.). Secondary antibodies for immunohistochemistry (IHC) (FITC or Cy5—labeled) were purchased from Jackson ImmunoResearch (West Grove, Pa.).
Age- and sex-matched Cln2^(+/+) mice from the same background were used as wild type (WT) controls and Cln2^(−/−) animals were used in different treatment groups. Gem (7.5 mg/kg body wt/day) was dissolved in DMSO followed by dilution in 0.1% methyl cellulose (MeC). Cln2^(−/−) mice were either not fed (Un-untreated group), gavaged with 0.1% MeC (vehicle treated group) or gavaged with gem (gem-treated group) for 8 weeks for biochemical studies. […]
(§4) After 8 weeks of treatment, mice were sacrificed and their brains fixed, embedded, and processed. […] The samples were mounted and observed under Olympus IX41 fluorescence microscope. […] After acquiring images under 20×objective lens, images were further analyzed as follows. […] Once the area of the image was measured, touch counting program was applied to count number of fluorescent signals using simple mouse click method. […]

SOCS3 [3] = assay: Double-label immunofluorescence of striatal sections for SOCS3 (GFAP, Iba1); format: in vivo, mouse; details: Cln2(−/−) mice, 8 weeks of oral gem, seen in astrocytes, microglia and other brain cells
Description: as §1, §3

Cln2^(−/−) mice [4] = assay: Locomotor activity (Digiscan Monitor open field) in Cln2(−/−) mice; format: in vivo, mouse; details: oral gem 7.5 mg/kg/day, after 8 weeks of treatment
Description: as §1
Locomotor activities were measured in Cln2^(−/−) mice after 8 weeks of gem treatment using Digiscan Monitor (Omnitech Electronics, Inc., Columbus, Ohio) as described by us (Khasnavis & Pahan 2014, Ghosh et al. 2007, Ghosh et al. 2009). This Digiscan Monitor records basic locomotion parameters, such as horizontal activity, total distance traveled, movement time, rest time, etc. as well as stereotypy, behavior that is directly controlled by striatum. […] DIGISCAN software was used to analyze and store horizontal and vertical activity data, which were monitored automatically by infra-red beams. […]

SOCS3 [5] = assay: Western blot of motor cortex and striatum extracts for SOCS3; format: in vivo, mouse; details: Cln2(−/−) mice, 8 weeks of oral gem; both motor cortex and striatum
Description: as §1, §2

[6] = after oral administration; cited from earlier work
[7] = test system: subunit c of mitochondrial ATP synthase (SCMAS); assay: Detection of storage materials by immunofluorescence of subunit c in motor cortex; format: in vivo, mouse; details: Cln2(−/−) mice, oral gem 7.5 mg/kg/day, 8 weeks
Description: as §1, §4
It was performed by monitoring subunit c of mitochondrial ATP synthase (SCMAS) by immunofluorescence. […] SCMAS-associated fluorescence intensity was quantified by using the Olympus Microsuite V software. […]

IL-1Ra [8] = assay: Double-label immunofluorescence of striatal sections for IL-1Ra (GFAP, Iba1); format: in vivo, mouse; details: Cln2(−/−) mice, 8 weeks of oral gem, in both astrocytes and microglia
Description: as §1, §3

[9] = cited from earlier work
phospho-BAD (P-BAD) = assay: Immunoblot of brain homogenates for phospho-BAD; format: in vivo, mouse; details: Cln2(−/−) mice, oral gem 7.5 mg/kg/day, 8 weeks
Description: as §1, §2

Cc1ccc(C)c(OCCCC(C)(C)C(=O)O)c1 [gem, 5-(2,5-dimethylphenoxy)-2,2-dimethylpentanoic acid]
increase of the lifespan (Cln2^(−/−) mice [1]): more than 2 months
survived until (Cln2^(−/−) mice [1]; untreated all died within 137 days, vehicle within 150 days): 204 days
IL-1Ra level, Western blot (IL-1Ra [2]): increase
number of astroglia or microglia (astroglia or microglia): did not observe any reduction in either astroglia or microglia
neuronal apoptosis (NeuN+TUNEL+ cells) in the motor cortex (NeuN-positive neurons; motor cortex): strongly inhibited neuronal apoptosis
neuronal apoptosis (NeuN+TUNEL+ cells) in the striatum (NeuN-positive neurons; striatum): reduced neuronal apoptosis
SOCS3 in the striatum, immunofluorescence (SOCS3 [3]): marked increase in SOCS3
locomotor activities (horizontal activity, movement time, number of movement, total distance, stereotypy counts, rest time) (Cln2^(−/−) mice [4]): significantly improved locomotor activities
SOCS3 level, Western blot (SOCS3 [5]): increase in SOCS3
entry into the CNS [6]: enters into the CNS
SCMAS storage material in the motor cortex [7]: significant decrease in SCMAS
IL-1Ra in the striatum, immunofluorescence (IL-1Ra [8]): restoration and/or upregulation of IL-1Ra
tolerability ([9]; human and animal studies): well tolerated
toxicity ([9]; oral drug): fairly nontoxic
level of P-BAD in the motor cortex (phospho-BAD (P-BAD); motor cortex): upregulation of P-BAD
level of P-BAD in the striatum (phospho-BAD (P-BAD); striatum): increased the level of P-BAD
